Values quoted from earlier work as cited in US9468638B2, “Itraconazole formulations” (Texas Southern University, priority 2010, dated 2016).
Converted amounts (≈) assume the structure as drawn. Where two headings read alike, the source gives them in different places.

Assays:
[1] = pH=8.1
[2] = not given; remark: listed apart in the source
[3] = human, in vivo, iv
[4] = rat, in vivo
[5] = in vivo, iv

n-octanol/water partition coefficient log Po/w [1] | water solubility (neutral pH) | water solubility (pH=1) | solubility in PEG 400 ([2]; PEG 400) [µg/mL] | solubility in Tween 20 ([2]; Tween 20) [µg/mL] | reduced clearance of hydroxylpropyl-β-cyclodextrin [3] [fold] | Compound | carcinogenicity finding [4] | toxicity that led to discontinuation of Sporanox I.V. Injection [5]
5.66 | about 1 ng/mL | approximately 4 mcg/mL | 2140 (≈ 3030 µM) | 1190 (≈ 1690 µM) |  | CCC(C)n1ncn(-c2ccc(N3CCN(c4ccc(OCC5COC(Cn6cncn6)(c6ccc(Cl)cc6Cl)O5)cc4)CC3)cc2)c1=O (centres unmarked) [Itraconazole] |  | 
 |  |  |  |  | 6 | hydroxylpropyl-β-cyclodextrin | produced pancreatic adenocarcinomas | renal toxicity
